Test results reported in ChEMBL document CHEMBL1201862, “PubChem BioAssay data set” (2004).
Calls of active or inactive are those of the source.

Tests used:
Cytochrome P450 2C9 = Cytochrome P450 2C9 (Homo sapiens, UniProt P11712)
[1] = viability of uninfected HEp-2 cells – cell-based, HTS, cytotoxicity control for RSV inhibitor project, dose response (AID 2410); type: functional; settings: human respiratory syncytial virus
[2] = target: T1, Replicative DNA helicase DnaB (Mycobacterium tuberculosis, UniProt P9WMR3); assay: DnaB intein splicing inhibitors, dose response, biochemical, cell-free fluorescence (AID 449749); type: functional
T1 sequence (P9WMR3 whole entry): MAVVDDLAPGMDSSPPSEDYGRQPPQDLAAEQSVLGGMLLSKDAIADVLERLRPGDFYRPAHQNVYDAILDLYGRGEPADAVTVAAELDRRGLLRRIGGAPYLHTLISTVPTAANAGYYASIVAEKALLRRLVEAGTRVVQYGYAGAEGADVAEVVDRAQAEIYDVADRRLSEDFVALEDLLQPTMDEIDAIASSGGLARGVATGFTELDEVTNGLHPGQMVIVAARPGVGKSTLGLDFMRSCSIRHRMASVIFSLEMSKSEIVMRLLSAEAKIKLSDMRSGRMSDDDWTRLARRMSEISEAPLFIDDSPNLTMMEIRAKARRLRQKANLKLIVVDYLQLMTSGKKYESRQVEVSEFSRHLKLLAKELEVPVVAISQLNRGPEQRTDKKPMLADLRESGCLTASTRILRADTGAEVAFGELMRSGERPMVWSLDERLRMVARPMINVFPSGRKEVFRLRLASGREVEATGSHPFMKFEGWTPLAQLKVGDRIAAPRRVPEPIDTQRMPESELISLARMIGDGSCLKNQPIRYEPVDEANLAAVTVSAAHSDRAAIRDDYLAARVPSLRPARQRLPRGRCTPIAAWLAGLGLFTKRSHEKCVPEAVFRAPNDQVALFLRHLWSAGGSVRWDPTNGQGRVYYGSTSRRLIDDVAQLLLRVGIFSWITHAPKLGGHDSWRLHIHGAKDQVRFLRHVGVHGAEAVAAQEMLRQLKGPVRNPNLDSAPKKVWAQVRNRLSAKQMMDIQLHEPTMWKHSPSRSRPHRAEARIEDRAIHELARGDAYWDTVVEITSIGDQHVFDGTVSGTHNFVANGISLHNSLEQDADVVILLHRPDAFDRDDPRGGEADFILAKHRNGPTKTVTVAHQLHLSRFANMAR

Protein RecA = target: T2, Protein RecA (Mycobacterium tuberculosis, UniProt P9WHJ3); assay: Fluorescence Cell-Free Homogeneous Dose Retest to Identify Inhibitors of RecA-Intein Splicing Activity. [Related pubchem assays (depositor defined):AID2097, AID2223, AID489010, AID492950]; type: functional
T2 sequence (P9WHJ3 whole entry): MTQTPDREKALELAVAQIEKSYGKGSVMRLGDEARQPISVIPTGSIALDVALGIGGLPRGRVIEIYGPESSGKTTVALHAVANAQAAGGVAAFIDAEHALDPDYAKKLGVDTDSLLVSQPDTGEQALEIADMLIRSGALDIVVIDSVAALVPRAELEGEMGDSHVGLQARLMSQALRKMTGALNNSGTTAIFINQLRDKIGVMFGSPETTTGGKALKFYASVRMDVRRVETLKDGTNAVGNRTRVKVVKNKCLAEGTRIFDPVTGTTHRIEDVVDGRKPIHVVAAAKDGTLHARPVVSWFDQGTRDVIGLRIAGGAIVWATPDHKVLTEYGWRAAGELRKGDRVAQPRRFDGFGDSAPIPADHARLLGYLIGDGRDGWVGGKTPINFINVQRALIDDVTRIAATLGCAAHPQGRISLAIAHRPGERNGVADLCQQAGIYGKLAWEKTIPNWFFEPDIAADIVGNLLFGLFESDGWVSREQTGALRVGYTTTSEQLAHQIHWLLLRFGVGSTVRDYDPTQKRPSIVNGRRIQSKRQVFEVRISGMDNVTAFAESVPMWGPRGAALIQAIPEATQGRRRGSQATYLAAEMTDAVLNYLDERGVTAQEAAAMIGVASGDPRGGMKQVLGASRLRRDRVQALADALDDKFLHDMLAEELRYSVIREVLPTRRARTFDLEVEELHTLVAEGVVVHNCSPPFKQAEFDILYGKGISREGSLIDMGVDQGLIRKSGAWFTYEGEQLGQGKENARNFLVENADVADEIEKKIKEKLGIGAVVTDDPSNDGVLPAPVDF

[3] = tested on: Streptococcus sp. 'group A'; assay: Streptococcus pyogenes SK(-)GAS viability under kanamycin – luminescence, BacTiterGlo, confirmation, counter-screen for streptokinase expression inhibitor project, dose response (AID 1900); type: functional, organism-based
Streptokinase A = target: T3, Streptokinase A (Streptococcus pyogenes serotype M1, UniProt P10520); assay: viability-normalized secreted streptokinase activity reduction – plasminogen activation absorbance, OD405, dose response (AID 1914); type: functional, Streptococcus pyogenes M1 GAS;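 note: secreted streptokinase activity via plasminogen activation per viability signal from cell pellet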
T3 sequence (P10520 whole entry): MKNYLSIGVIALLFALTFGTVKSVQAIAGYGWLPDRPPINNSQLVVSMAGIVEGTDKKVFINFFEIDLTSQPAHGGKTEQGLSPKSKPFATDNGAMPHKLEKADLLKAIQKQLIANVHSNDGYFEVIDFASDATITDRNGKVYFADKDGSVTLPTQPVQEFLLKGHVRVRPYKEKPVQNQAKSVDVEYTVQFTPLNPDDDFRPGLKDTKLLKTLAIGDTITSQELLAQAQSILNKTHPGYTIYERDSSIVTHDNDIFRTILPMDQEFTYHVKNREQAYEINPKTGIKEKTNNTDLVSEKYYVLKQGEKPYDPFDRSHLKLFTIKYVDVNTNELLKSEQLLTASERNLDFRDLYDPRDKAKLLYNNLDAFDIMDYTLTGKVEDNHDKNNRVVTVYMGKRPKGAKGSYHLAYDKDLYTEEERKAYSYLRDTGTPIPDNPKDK

Streptococcus = assay: GAS UMAA2166 growth inhibition – luminescence, BacTiterGlo, counter-screen for streptokinase expression inhibitor project, dose response (AID 1915); type: functional, organism-based;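 note: potency for reduction of bacterial viability or growth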
Cytochrome P450 2D6 = Cytochrome P450 2D6 (Homo sapiens, UniProt P10635);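 note: CYP2D6 member of a cytochrome P450 panel assay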
Cytochrome P450 2D6, sequence (P10635 whole entry): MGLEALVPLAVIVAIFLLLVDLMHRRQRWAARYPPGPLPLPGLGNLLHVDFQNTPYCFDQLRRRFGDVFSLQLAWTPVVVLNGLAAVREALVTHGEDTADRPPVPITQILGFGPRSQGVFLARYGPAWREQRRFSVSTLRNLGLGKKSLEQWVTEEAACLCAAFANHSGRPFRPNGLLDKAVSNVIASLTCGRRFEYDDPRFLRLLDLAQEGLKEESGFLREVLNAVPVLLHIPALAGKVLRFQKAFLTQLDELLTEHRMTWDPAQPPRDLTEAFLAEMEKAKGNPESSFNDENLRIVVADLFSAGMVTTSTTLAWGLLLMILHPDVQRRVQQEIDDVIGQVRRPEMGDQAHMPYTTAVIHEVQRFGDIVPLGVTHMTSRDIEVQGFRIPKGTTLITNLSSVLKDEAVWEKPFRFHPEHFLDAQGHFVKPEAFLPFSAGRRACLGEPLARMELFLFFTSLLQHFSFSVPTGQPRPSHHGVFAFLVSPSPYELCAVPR

[4] = target: T4, Heat shock factor protein 1 (Mus musculus, UniProt P38532); assay: enhancement of HSF1-driven luciferase signal – cell-based, NIH3T3, luminescence, dose retest, confirmation (AID 435004); type: functional;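 note: stress induced by proteasome inhibitor MG132 added 30 min after compound; luciferase reporter driven by HSF1 response element in NIH3T3 cells; actives raise luminescence as potentiators of the MG132 stress response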
T4 sequence (P38532 whole entry): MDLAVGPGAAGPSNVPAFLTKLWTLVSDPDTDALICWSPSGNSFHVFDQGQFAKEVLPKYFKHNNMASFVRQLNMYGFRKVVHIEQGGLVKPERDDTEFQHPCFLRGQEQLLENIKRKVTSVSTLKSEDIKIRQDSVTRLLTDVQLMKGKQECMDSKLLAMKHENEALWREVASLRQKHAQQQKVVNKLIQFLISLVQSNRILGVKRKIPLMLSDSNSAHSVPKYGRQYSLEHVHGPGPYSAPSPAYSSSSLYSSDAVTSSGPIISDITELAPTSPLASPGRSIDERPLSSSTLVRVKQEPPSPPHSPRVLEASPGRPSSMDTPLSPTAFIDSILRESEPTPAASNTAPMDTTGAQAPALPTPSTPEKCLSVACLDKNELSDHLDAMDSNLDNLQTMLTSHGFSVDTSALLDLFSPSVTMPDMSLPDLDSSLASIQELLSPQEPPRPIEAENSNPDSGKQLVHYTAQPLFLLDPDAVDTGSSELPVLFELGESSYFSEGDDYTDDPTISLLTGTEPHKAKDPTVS

[5] = target: T5, Corticotropin-releasing factor receptor 2/Corticotropin-releasing factor-binding protein (Homo sapiens, UniProt P24387+Q13324); assay: activators of CRF receptor 2 with binding protein – uHTS hits, confirmation (AID 602473); type: functional; settings: read-out: EC50_Mean
T5 sequence (Q13324 whole entry): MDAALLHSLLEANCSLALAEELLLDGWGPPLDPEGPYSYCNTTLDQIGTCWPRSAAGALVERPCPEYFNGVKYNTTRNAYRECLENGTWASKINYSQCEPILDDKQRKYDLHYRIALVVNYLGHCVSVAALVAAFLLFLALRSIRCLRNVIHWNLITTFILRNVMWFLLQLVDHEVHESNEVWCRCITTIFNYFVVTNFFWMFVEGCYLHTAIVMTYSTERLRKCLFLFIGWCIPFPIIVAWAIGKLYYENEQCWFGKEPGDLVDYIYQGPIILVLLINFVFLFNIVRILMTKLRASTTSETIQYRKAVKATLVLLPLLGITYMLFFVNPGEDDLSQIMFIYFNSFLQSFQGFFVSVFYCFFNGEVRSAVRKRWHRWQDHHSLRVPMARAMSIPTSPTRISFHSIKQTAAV
T5 sequence (P24387 whole entry): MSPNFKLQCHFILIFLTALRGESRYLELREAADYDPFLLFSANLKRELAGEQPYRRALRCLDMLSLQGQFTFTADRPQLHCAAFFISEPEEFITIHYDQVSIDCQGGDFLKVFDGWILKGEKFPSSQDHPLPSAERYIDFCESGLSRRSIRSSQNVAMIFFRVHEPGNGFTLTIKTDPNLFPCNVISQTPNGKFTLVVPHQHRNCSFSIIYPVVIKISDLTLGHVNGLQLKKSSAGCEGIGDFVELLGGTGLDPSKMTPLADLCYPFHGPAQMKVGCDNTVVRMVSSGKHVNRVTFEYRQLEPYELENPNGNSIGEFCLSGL

Cytochrome P450 2C9, sequence (P11712 whole entry): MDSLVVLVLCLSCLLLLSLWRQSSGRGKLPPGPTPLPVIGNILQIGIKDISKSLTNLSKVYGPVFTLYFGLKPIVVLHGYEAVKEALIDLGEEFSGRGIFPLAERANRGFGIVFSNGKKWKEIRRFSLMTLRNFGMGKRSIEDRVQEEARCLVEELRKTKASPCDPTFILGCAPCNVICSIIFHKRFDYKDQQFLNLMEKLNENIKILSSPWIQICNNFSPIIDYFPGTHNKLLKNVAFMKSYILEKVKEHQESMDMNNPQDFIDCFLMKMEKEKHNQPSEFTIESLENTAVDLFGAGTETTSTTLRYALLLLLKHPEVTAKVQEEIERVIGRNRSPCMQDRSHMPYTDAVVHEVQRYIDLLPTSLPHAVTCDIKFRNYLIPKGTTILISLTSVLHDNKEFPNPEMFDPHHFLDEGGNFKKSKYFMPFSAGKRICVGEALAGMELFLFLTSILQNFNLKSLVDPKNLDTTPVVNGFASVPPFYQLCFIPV

Row | SMILES | CC50 [1] | AC50 [2] | EC50 (Protein RecA) | further results
1 | O=C1C=C/C(=N/c2cccc3c(/N=C4\C=CC(=O)O4)cccc23)O1 |  |  |  | AC50 (Cytochrome P450 2C9): 6.31 µM (inconclusive)
2 | COc1cc(Cn2nnc3ccccc32)cc(Br)c1O | 23.2 µM (active) |  |  | 
3 | CCOc1ccc(S(=O)(=O)N2CCN(c3ccccc3)CC2)c2cccnc12 | 30.9 µM (active) |  |  | 
4 | CCCc1n[nH]c2c1C(c1cc(OC)cc(OC)c1)C(C#N)=C(N)O2 (stereo not drawn) |  | 1.27 µM (active) | 1.51 µM (active) | 
5 | Clc1ccc(SCc2cc(Cl)nc(-c3ccccc3)n2)cc1 |  |  |  | EC50 [3]: > 150 µM (not active); EC50 (Streptokinase A): 17 µM (active); EC50 (Streptococcus): > 150 µM (not active)
6 | O=C(CSc1nnc(CNC(=O)c2c(F)cccc2F)o1)NCc1ccccc1 |  |  |  | EC50 [3]: > 150 µM (not active); EC50 (Streptokinase A): > 150 µM (not active); EC50 (Streptococcus): > 150 µM (not active)
7 | Oc1c(Br)cc(Br)cc1CNc1ccc(F)cc1 |  |  |  | EC50 [3]: 20.4 µM (active); EC50 (Streptokinase A): 84.4 µM (active); EC50 (Streptococcus): > 150 µM (not active)
8 | Brc1ccc2c(c1)C(c1ccc(N3CCOCC3)cc1)=NNC(c1cccs1)=N2 | 32.1 µM (active) |  |  | 
9 | COc1ccc(-c2[nH]nc3c2C(c2ccoc2)C(C#N)=C(N)O3)cc1 (stereo not drawn) |  | 1.39 µM (active) | 0.548 µM (active) | 
10 | N[C@@H]1C[C@H]1c1ccccc1.N[C@H]1C[C@@H]1c1ccccc1 [TRANYLCYPROMINE] |  |  |  | AC50 (Cytochrome P450 2D6): 31.6 µM (inconclusive); AC50 (Cytochrome P450 2C9): 39.8 µM (inconclusive)
11 | O=C(Cc1ccccc1)N/N=C/c1ccccn1 |  |  |  | EC50 [3]: > 150 µM (not active); EC50 (Streptokinase A): > 150 µM (not active); EC50 (Streptococcus): > 150 µM (not active)
12 | O=C(N/C=C/c1ccccc1)Nc1ccc(Cl)cc1 | 20.8 µM (active) |  |  | 
13 | O=[N+]([O-])c1cc(C(F)(F)F)ccc1SCC(O)CO (stereo not drawn) | > 50 µM (active) |  |  | 
14 | CC(C)(C)C(=O)Nc1cccc(-c2cc(-c3c(Cl)cccc3Cl)no2)c1 | 12.9 µM (active) |  |  | EC50 [4]: > 260 µM (inactive)
15 | Cc1oc2cc(O)cc(C)c2c(=O)c1-c1cnn(-c2ccccc2)c1 | 15.6 µM (active) |  |  | 
16 | C/C(=N\Nc1cccc([N+](=O)[O-])c1)c1cc(F)ccc1O | > 50 µM (active) |  |  | 
17 | Cc1nc2ccc(S(=O)(=O)NC(CC(C)C)C(=O)O)cc2s1 (stereo not drawn) |  |  |  | AC50 (Cytochrome P450 2C9): 12.6 µM (inconclusive)
18 | N#CC1=C(N)N(c2ccccc2)C(c2cccc([N+](=O)[O-])c2)C1(C#N)C#N (stereo not drawn) |  | 5.73 µM (active) | 12.8 µM (active) | 
19 | CC(=O)Oc1ccc(N(C(C)=O)S(=O)(=O)c2ccc3ccccc3c2)cc1Br |  | 9.4 µM (active) | 17.3 µM (active) | 
20 | O=C(Nc1cnc(O)nc1O)c1cccc(F)c1 | 18.6 µM (active) |  |  | 
21 | CCCc1n[nH]c2c1C(c1ccsc1)C(C#N)=C(N)O2 (stereo not drawn) |  | 16.5 µM (active) | 2.28 µM (active) | 
22 | COc1ccc(N(C)C(=O)c2cc3c(s2)-c2c(C)cccc2OC3)c(OC)c1 | 19.6 µM (active) | 74.5 µM (active) | 133 µM (inconclusive) | 
23 | COC(=O)c1[nH]c2ccc(Br)cc2c1NC(=O)CN1CCCc2ccccc21 | 41.9 µM (active) |  |  | 
24 | O=C1/C(=C/c2ccc3c(c2)OCO3)CCC/C1=C\c1ccc2c(c1)OCO2 |  | > 380 µM (inactive) | > 380 µM (inactive) | 
25 | O=C(c1ccc2nc(Cc3cccc(Cl)c3)oc2c1)N1CCC(O)CC1 |  | 357 µM (active) | > 380 µM (inactive) | 
26 | Cc1ccc(S(=O)(=O)Oc2ccc(C(c3c(C)n[nH]c3O)c3c(C)n[nH]c3O)cc2)cc1 |  | 7.06 µM (active) | 46.2 µM (active) | EC50 [5]: > 53 µM (inactive)
27 | Cc1noc(C)c1COC(=O)CCN1c2ccccc2Sc2ccccc21 | 37.9 µM (active) |  |  | 
28 | c1ccc2c(CSCc3cccc4ccccc34)cccc2c1 |  |  |  | AC50 (Cytochrome P450 2C9): 3.16 µM (inconclusive)
29 | Cc1[nH]n(-c2ccccc2)c(=O)c1C=C1C(=O)NC(=O)NC1=O |  | 16.8 µM (active) | 7.39 µM (active) | 
30 | Cc1ccc(NC(=O)c2sc3ncnc(N4CCN(c5ccccn5)CC4)c3c2C)c(C)c1 |  | 15.7 µM (active) | > 380 µM (inactive) | 
